# Test results published in patent publication US9120766B2, “Methods of making cocrystals” (Aptuit (West Lafayette), LLC, priority 2011, dated 2015).
# Assays:
# physchem = settings: thermodynamic from solid
# [1] = literature (López-Nicolás 2009); cited from earlier work
# [2] = literature; cited from earlier work
# [3] = Solubility estimates at ambient temperature (gravimetric or incremental solvent addition); settings: thermodynamic from solid
structure (smiles),measurement,setting,value
C1CNCCN1 [piperazine],solubility,physchem; aqueous with cosolvent or surfactant or cyclodextrin,> 324 mg/mL
"CC(=O)[C@H]1CC[C@H]2[C@@H]3CCC4=CC(=O)CC[C@]4(C)[C@H]3CC[C@]12C [Progesterone, reference compound]",solubility,physchem; organic solvent or mixture,30 mg/mL
COc1cc(/C=C/c2ccc(O)cc2)cc(OC)c1 [Pterostilbene],Solubility in water,[1],poor solubility in water
same,Bioavailability,[2],poor bioavailability
same,solubility,"[3]; ACN, organic solvent or mixture, solvent ACN, ambient temperature",> 203 mg/mL
same,solubility,"[3]; EtOAc, organic solvent or mixture, solvent EtOAc, ambient temperature",> 201 mg/mL
same,solubility,"[3]; EtOH, organic solvent or mixture, solvent EtOH, ambient temperature",410 mg/mL
same,solubility,"[3]; MEK, organic solvent or mixture, solvent MEK, ambient temperature (Table 1)",> 200 mg/mL
same,solubility,"[3]; MTBE, organic solvent or mixture, solvent MTBE, ambient temperature",> 200 mg/mL
same,solubility,"[3]; heptane, organic solvent or mixture, solvent Heptane, ambient temperature",< 2 mg/mL
same,solubility,"[3]; isopropanol/water with water content 70% and higher, aqueous with cosolvent or surfactant or cyclodextrin",≤ 2 mg/mL
same,solubility,"[3]; isopropanol:water 40:60, aqueous with cosolvent or surfactant or cyclodextrin, 40:60 isopropanol to water mixture",~22 mg/mL
same,solubility,"[3]; isopropyl alcohol (IPA), organic solvent or mixture, solvent IPA (isopropyl alcohol), ambient temperature",399 mg/mL
same,solubility,"[3]; water, solvent Water, ambient temperature",0.02 mg/mL
same,solubility,"[3]; water:IPA 55:45, aqueous with cosolvent or surfactant or cyclodextrin, solvent Water:IPA 55:45, ambient temperature",22 mg/mL
same,solubility,"[3]; water:IPA 60:40, aqueous with cosolvent or surfactant or cyclodextrin, solvent Water:IPA 60:40, ambient temperature",22 mg/mL
same,solubility,"[3]; water:IPA 70:30, aqueous with cosolvent or surfactant or cyclodextrin, solvent Water:IPA 70:30, ambient temperature",2 mg/mL
same,solubility,"[3]; water:ethanol 50:50 v/v, aqueous with cosolvent or surfactant or cyclodextrin, solvent system Water:ethanol 50:50 v/v, ambient temperature",54 mg/mL
NC(=O)c1cccnc1 [nicotinamide],solubility,physchem; organic solvent or mixture,42 mg/mL
